The values below come from ChEMBL document CHEMBL1121497, “Studies on cardiovascular agents. 6. Synthesis and coronary vasodilating and antihypertensive activities of 1,2,4-triazolo[1,5-a]pyrimidines fused to heterocyclic systems” (1980).

SMILES strings stand for the structures.

For one assay, the system named is Rattus norvegicus. The assay is described as follows: Hypotensive index (HI) measured as the area under the time-hypotensive response curve for 6-h period at 30 mg/kg, po. It is filed as functional.
The next assay is filed under the species Cavia porcellus. The assay is described as follows: Integrated vasodilating potency (IVP) (the product of compound-induced maximum percent decrease in the perfusion pressure and the duration of the effect in minutes at 100 ug (ia)). It is filed as functional.

Turning to `Cc1nc2ncnn2c2c1CCN2`, the HI with Rattus norvegicus stood at 55. In addition, in the assay listed under Cavia porcellus, the IVP was 6.

`Cc1nc2ncnn2c2c1CCN2CCN1CCCCC1` came in with an HI with Rattus norvegicus of 10. In addition, the IVP in the assay listed under Cavia porcellus is given as 2.

For the compound `Cc1nc2ncnn2c2c1CCN2Cc1ccc(Cl)cc1`, in the assay on Rattus norvegicus, the HI turned out to be 145. In the assay listed under Cavia porcellus, this compound displayed an IVP of 250.

Turning to `COc1ccc(Cn2ccc3c(C)nc4ncnn4c32)cc1`, the HI with Rattus norvegicus came to 0. This compound registered an IVP in the assay filed under Cavia porcellus of 55.

In the case of `Cc1nc2ncnn2c2c1CCN2CCCN1CCCCC1`, the HI in the assay on Rattus norvegicus is 45. The IVP in the assay filed under Cavia porcellus is given as 5.

Compound `Cc1nc2ncnn2c2c1ccn2CC(C)C` had an HI in the assay on Rattus norvegicus of 15. The same compound yielded an IVP in the assay listed under Cavia porcellus of 38.

In the assay on Rattus norvegicus, `Cc1nc2ncnn2c2c1CCN2c1c(Cl)cccc1Cl` registered an HI of 0. The IVP in the assay filed under Cavia porcellus is 7.

With `c1ccc(CCN2CCc3c(C4CC4)nc4ncnn4c32)cc1`, in the assay with Rattus norvegicus, the HI amounted to 12. For the same compound, in the assay filed under Cavia porcellus, the IVP amounted to 180.

Turning to `Cc1nc2ncnn2c2c1CCN2C(C)CC(C)C` (centres undefined), the HI with Rattus norvegicus is listed as 5. The IVP in the assay listed under Cavia porcellus worked out at 86.

For `CCC(C)N1CCc2c(C)nc3ncnn3c21` (centres undefined), the HI in the assay with Rattus norvegicus was found to be 100. In the assay filed under Cavia porcellus, this compound had an IVP of 5.

Take `Cc1nc2ncnn2c2c1CCN2C(C)(C)CO`: the HI in the assay on Rattus norvegicus worked out at 75. Moreover, the IVP in the assay filed under Cavia porcellus was determined as 38.

In the case of `CCCCCCN1CCc2c(C)nc3ncnn3c21`, the HI in the assay on Rattus norvegicus came to 10. The compound also showed an IVP in the assay filed under Cavia porcellus of 14.

`Cc1nc2ncnn2c2c1CCN2C1CCCCCC1` displayed an HI in the assay with Rattus norvegicus of 45. Also, the IVP in the assay listed under Cavia porcellus is reported as 440.

In the assay with Rattus norvegicus, `COc1ccc(CN2c3c(c(C)nc4ncnn34)CC2C)cc1` (centres undefined) yielded an HI of 11. Besides, the IVP in the assay listed under Cavia porcellus was 82.

The compound `Cc1nc2ncnn2c2c1CCN2Cc1ccccc1Cl` came in with an HI in the assay with Rattus norvegicus of 30. The IVP in the assay listed under Cavia porcellus is 86.

Take `Cc1nc2nc(C)c3c(n2n1)N(Cc1ccccc1Cl)CC3`: the HI in the assay with Rattus norvegicus stood at 18. The compound further displayed an IVP in the assay listed under Cavia porcellus of 15.

In the case of `Cc1nc2ncnn2c2c1CCN2CCCN1CCOCC1`, the HI with Rattus norvegicus is 40. The compound further came in with an IVP in the assay filed under Cavia porcellus of 3.

For the compound `COc1ccc(CN2CCc3c(C)nc4ncnn4c32)cc1`, the HI with Rattus norvegicus is recorded as 13. Moreover, the IVP in the assay filed under Cavia porcellus amounted to 55.

In the assay with Rattus norvegicus, `COc1ccc(-c2nc3nc(C)c4c(n3n2)N(CCCN2CCCC2)CC4)cc1` registered an HI of 0. Moreover, the IVP in the assay filed under Cavia porcellus is 0.

`Cc1nc2ncnn2c2c1CCN2c1ccccc1` came in with an HI in the assay on Rattus norvegicus of 15. In addition, the IVP in the assay filed under Cavia porcellus is 72.

`Cc1nc2ncnn2c2c1CCN2CCCOC(=O)c1cccnc1` displayed an HI with Rattus norvegicus of 30. Also, the IVP in the assay listed under Cavia porcellus is listed as 24.

For `Cc1nc2ncnn2c2c1CCN2CCCO`, the HI with Rattus norvegicus is on record as 105. Moreover, the IVP in the assay listed under Cavia porcellus is 12.

For `Cc1nc2ncnn2c2c1CCN2CCO`, the HI in the assay on Rattus norvegicus turned out to be 0. The compound also yielded an IVP in the assay listed under Cavia porcellus of 12.

As to `CC(C)N1CCc2c(C3CC3)nc3ncnn3c21`, in the assay on Rattus norvegicus, the HI is reported as 5. In the assay listed under Cavia porcellus, this compound had an IVP of 45.

In the assay with Rattus norvegicus, `Cc1nc2ncnn2c2[nH]ccc12` returned an HI of 60. The compound also gave an IVP in the assay filed under Cavia porcellus of 45.

In the assay on Rattus norvegicus, `CCCCN1CCc2c(C)nc3ncnn3c21` gave an HI of 145. The compound also returned an IVP in the assay filed under Cavia porcellus of 30.

`Cc1nc2ncnn2c2c1CCN2C` came in with an HI in the assay on Rattus norvegicus of 10. This compound gave an IVP in the assay filed under Cavia porcellus of 50.

`Cc1nc2ncnn2c2c1CC[N+]2(C)C(C)(C)C.[I-]` (centres undefined) had an HI in the assay with Rattus norvegicus of 0. Moreover, the IVP in the assay filed under Cavia porcellus was 9.

In the assay on Rattus norvegicus, `Cc1nc2ncnn2c2c1CCN2CCOC(=O)c1cccnc1` yielded an HI of 30. In addition, the IVP in the assay listed under Cavia porcellus is on record as 7.

In the case of `Cc1nc2ncnn2c2c1NCCN2C`, in the assay with Rattus norvegicus, the HI came to 5. This compound also gave an IVP in the assay filed under Cavia porcellus of 0.

As for `Cc1nc2ncnn2c2c1CCN2C(C)COc1ccccc1` (centres undefined), in the assay with Rattus norvegicus, the HI stood at 65. In the assay filed under Cavia porcellus, this compound showed an IVP of 63.

Compound `CCCN1CCN(CCCN2CCc3c(C)nc4ncnn4c32)CC1` yielded an HI in the assay on Rattus norvegicus of 0. This compound gave an IVP in the assay filed under Cavia porcellus of 3.
